Here are results for three molecules from article PMC4912613, “A broad analysis of resistance development in the malaria parasite” (Nature Communications, 2016).

One test has as its system Dd2. Description: Cross-resistance EC50 assay, Dd2 parent. The class given is cell-based, Plasmodium falciparum. The settings on record: Plasmodium falciparum, DD2, 72 h. The source says: Multidrug resistance alleles, including mutations in P. falciparum chloroquine resistance transporter (pfcrt) and P. falciparum multi-drug resistance transporter 1 (pfmdr1) are very common in field isolates. Therefore, we sought to assess the degree to which pre-existing resistance alleles would contribute to a loss of potency for this diverse collection of small molecule compounds. Fifteen clones derived from three main parent lines were chosen to maximize diversity in mutated pathways and genetic backgrounds, thus representing the variety of resistance seen in the field: 3D7 (ref. [23]), W2 (ref. [24]) or Dd2 (ref. [25]). The 3D7 line originates from the clone of a Netherlands clinical isolate strain[23][26] and is generally considered to be drug sensitive, though it does convey resistance to sulfadoxine. Conversely, W2 (ref. [24], [27]) and Dd2 (ref. [25]) are multi-drug-resistant lines originating from the Indochina III/CDC isolate, which contain point mutations in pfcrt as well as amplifications in pfmdr1 and GTP cyclohydrolase.
(§1) To evaluate potential overlapping activity against known antimalarial drug targets, we performed dose-response studies with each compound against our assembled set of drug-resistant lines and their corresponding parents, in an asexual blood stage proliferation assay (Table 1). Comparisons were made to the drug-sensitive strain 3D7 when a parent was unavailable (TM90C2A, W2 and Dd2). As laboratories conducted EC50 assays with different strains and protocols, all comparisons were made between assays from the same laboratory and under the same assay conditions. Compounds displaying >5-fold EC50 shifts relative to the parent or sensitive strain were flagged as having potentially non-novel targets. Average fold shifts per strain ranged from 0.82 to 2.34, with a median of 1.23 indicating there was not common resistance to any one resistant clone. No resistance patterns were observed when classifying the compounds based on chemical structure, but this was not surprising given the diversity of compounds chosen. On the other hand, given that these confirmed compounds were derived from larger unconfirmed hit lists to which some filtration criteria may have been applied (for example, elimination of obvious dihydrofolate reductase inhibitors[32]), some[10][11][12][13] pre-existing bias may exist in the set. […]
(§2) Alternatively, a SYBR Green-based proliferation approach was used for the 72-h assay, as previously described. Briefly, a culture of either synchronized or asynchronous parasitized RBCs (0.3% parasitemia and 4% haematocrit) in screening medium (identical to supplemented medium above except no serum was added) was exposed to serial drug dilutions. Plates were incubated at 37 °C and gassed with 93% N2, 4% CO2 and 3% O2 for 72 h. Following incubation, 10 × SYBR Green I (Invitrogen; supplied in 10,000 × concentration) in lysis buffer ([…], 5 mM EDTA, 0.16% Saponin wt per vol and 1.6% Triton X vol per vol) was added to the wells and the plates were incubated overnight at room temperature before plate reading. EC50 assays were repeated three times, taking the average EC50 value from each assay set, and removing any outliers using a single iteration of Grubbs' test, eliminating values with z-scores above the critical z-value (α=0.05). The raw EC50 values for synchronized parasites assayed in a 384-well format are listed in Supplementary Data 4. The raw EC50 values for asynchronous parasites assayed in a 96 or 1536-well format are listed in Supplementary Data 5.
(§3) EC50 values for each strain were compared with those of the corresponding parent strain to determine fold-shift changes and identify resistance. To minimize the cause variance between assays, all comparisons were conducted between strains assayed under identical conditions. A one-way ANOVA followed by a Dunnet's post-test was conducted in GraphPad Prism to identify significant changes between the parent and resistant strain.

The test system of test [1] is CYTbQi (cytb G33A, parent Dd2). In words: Cross-resistance EC50 assay, CYTbQi. Type of test: cell-based. Particulars: Plasmodium falciparum, SYBR green 72 hour assay, synchronized parasites, 384-well format.
Description: as §1, §2, §3

In another test the test system is W2. In words: Cross-resistance EC50 assay, W2 parent. The class given is cell-based, Plasmodium falciparum. The settings on record: Plasmodium falciparum, 48 h, read-out: W2F6 (PARENT) Average EC50. The essentials: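 P. falciparum asexual blood-stage proliferation, parent/sensitive strain of each resistant clone; 48-h assay with rings (0.5% parasitemia, 2.0% haematocrit) in RPMI-1640/5% AlbuMAX, ^3H-hypoxanthine added at 24 h, normalized to no-drug and 2 μM artesunate controls; alternatively 72-h SYBR Green assay (0.3% parasitemia, 4% haematocrit). EC50s from triplicate fits.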

Where [2] appears, read: read-out: Dd2 (PARENT) Average EC50.
Where [3] appears, read: read-out: Dd2 (PARENT) EC50 (µM) Average EC50.

Like-named read-outs stand apart in the source and are kept apart here.

What is called EC50 is the concentration giving half of the maximal effect. As for `c1cncc(-c2cc(N3CCC(CN4CCOCC4)CC3)nc(-c3ccncc3)n2)c1` [MMV668399], the EC50 was 0.087 µM with Dd2 (setting [2]), 0.984 µM in the test on Dd2 (setting [3]), 162 nM in test [1] (strain CYTbQi (Dd2 parent)) and 164 nM in the test with W2.
For `COc1ccc2c3c([nH]c2c1)[C@H](CO)N(C(C)=O)CC31CCN(C(=O)Nc2ccccc2F)CC1` [MMV673482], the EC50 in the test with Dd2 (setting [2]) was determined as 0.07 µM; in the test on Dd2 (setting [3]), 0.005 µM; in test [1] (DD2, CYTbQi strain), 84 nM; in the test with W2, 176 nM.
The like results for `CN(C)CCCNCc1ccc(-c2ccc(Cl)c(Cl)c2)o1` [MMV673964] were, in that order, 0.426 µM, 1.12 µM, 319 nM and 561 nM.
